Patent publication US6638961B2 (priority 1994, dated 2003)
Several values for one entry are separate records, joined by “and”; a condition that tells them apart may be missing. Equal values may be shown once.

Legend:
[1] = system: Phytophthora infestans (tomato blight); format: in vivo; conditions: for dose of the active substance alone which it is necessary to apply to obtain the destruction of 90% of the pest: applied alone, tomato plants sprayed 48 hours before contamination, reading 7 days after contamination
[2] = system: Plasmopara viticola (vine downy mildew); experiment: In vivo trial on Plasmopara viticola (vine downy mildew) by preventive treatment at 72 hours, vine cuttings Chardonnay variety
Experimental: (§1) A 60 mg suspension is prepared comprising compounds A and B in a liquid mixture consisting of 0.3 ml of a surface-active agent (oleate of a polyoxyethylenated derivative of sorbitan) diluted 10% in water and of 60 ml of water.
(§2) Vine cuttings (Vitis vinifera) Chardonnay variety, are cultivated in pots. When these plants are 2 months old (8 to 10-leaf stage, height 10 to 15 cm), they are treated by spraying using the above suspension.
(§3) Plants used as controls are treated with a similar suspension but not containing any active substance (formulation blank).
(§4) After drying for 72 hours, each plant is contaminated by spraying an aqueous Plasmopara viticola spore suspension obtained from sporulated leaves contaminated 7 days earlier. These spores are suspended in an amount of 100,000 units per cm^3.
(§5) The contaminated plants are then incubated for two days at about 18° C., in an atmosphere saturated with moisture, and then for 5 days at 20-22° C. under a relative humidity of 90-100%.

[3] = system: Plasmopara viticola (vine downy mildew); experiment: In vivo trial on Plasmopara viticola (vine downy mildew) by preventive treatment at 24 hours, vine cuttings Chardonnay variety; conditions: dose 3.2 mg/l compound A and/or 12.5 mg/l mancozeb; contamination 24 hours after treatment
Experimental: as §1, §2, §3, §4, §5
Example 2 is repeated using as component B mancozeb, using A and B concentrations in the suspension for treating the plants equal to 3.2 and 12.5 mg/l respectively, and finally carrying out the contamination 24 hours after the treatment.
The efficacy measured, as well as the efficacy of products A and B alone measured under the same conditions, is indicated in the table below. […]

| Molecule | dose of the active substance alone which it is necessary to apply to obtain the destruction of 90% of the pest [1] | dose of the active substance alone which it is necessary to apply to obtain the destruction of 90% of the pest ([2]; applied alone, vine plants sprayed 72 hours before contamination, reading 7 days after contamination) | Efficacy (in %) [3] | efficacy when applied alone ([1]; applied alone under the trial conditions, preventive 48 hours, 90% destruction level (FIG. 1)) | efficacy when applied alone ([2]; applied alone under the trial conditions, preventive 72 hours, 90% destruction level (FIG. 2)) |
| --- | --- | --- | --- | --- | --- |
| CSC1=N[C@@](C)(c2ccccc2)C(=O)N1Nc1ccccc1 [Compound A, (4S)-4-methyl-2-methylthio-4-phenyl-1-phenylamino-2-imidazolin-5-one] | 309 mg/L and 163 mg/L | 20 mg/L | 80.8% | – | – |
| CCO[PH](=O)O [fosetyl-Al] | – | – | – | not effective | not effective |
| mancozeb | – | – | 0% | – | – |
| CCN(C)C(=O)c1ccc(C(F)(F)F)cc1-c1ccc(OC)c(OC)c1 [N-methyl-N-ethyl-2-(3,4-dimethoxyphenyl)-4-trifluoromethylbenzamide] | 166 mg/L | – | – | – | – |
